Measurements: PubChem BioAssay AID330 (DTP/NCI, 2004)
Values joined by “and” are separate entries in the source; they are usually repeats but may differ in a detail not shown here. Identical values can stand only once. Inconclusive results and toxic doses are left out.

Tested on: P388 leukemia ip, CD2F1 mice, survival T/C
Test: NCI In Vivo Anticancer Drug Screen. Data for tumor model P388 Leukemia (intraperitoneal) in CD2F1 (CDF1) mice
Details: endpoint: median survival time, higher = longer survival
Method in brief: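 Mice carrying the transplanted tumor received test compound or vehicle. Survival was recorded in each group, and the value is the treated-group measurement divided by that of the vehicle-treated control group.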

With `COc1cccc2c1C(=O)c1c(O)c3c(c(O)c1C2=O)C[C@@](O)(C(=O)CO)C[C@@H]3OC1CC(N)C(O)C(C)O1` (stereo partly drawn) the T/C (dose: 0.04 mg/kg/injection, schedule: Q04DX003 (ip), vehicle: saline) was 116 % of control, the T/C (dose: 0.04 mg/kg/injection, schedule: Q04DX003 (ip), vehicle: water) was 115 % of control and the T/C (dose: 0.06 mg/kg/injection, schedule: Q01DX005 (sc), vehicle: water) was 100 % of control. The T/C (dose: 0.06 mg/kg/injection, schedule: Q03HX008 (ip), vehicle: saline) was 114 % of control, the T/C (dose: 0.06 mg/kg/injection, schedule: Q04DX003 (ip), vehicle: water) was 122 % of control and the T/C (dose: 0.1 mg/kg/injection, schedule: Q04DX003 (ip), vehicle: water) was 121 % of control. The T/C (dose: 0.12 mg/kg/injection, schedule: Q01DX005 (sc), vehicle: water) was 101 % of control, the T/C (dose: 0.13 mg/kg/injection, schedule: Q01DX009 (ip), vehicle: water) was 162 % of control and the T/C (dose: 0.13 mg/kg/injection, schedule: Q03HX008 (ip), vehicle: saline) was 116 % of control. For the same compound, the T/C (dose: 0.25 mg/kg/injection, schedule: Q01DX001 (ip), vehicle: Klucel (hydroxypropylcellulose) (HPC)) was 108 % of control, the T/C (dose: 0.25 mg/kg/injection, schedule: Q01DX001 (ip), vehicle: saline with Tween-80) was 112 % of control and the T/C (dose: 0.25 mg/kg/injection, schedule: Q01DX001 (ip), vehicle: saline) was 105 % of control. The T/C (dose: 0.25 mg/kg/injection, schedule: Q01DX005 (ip), vehicle: water) was 153 % of control and 160 % of control and 161 % of control, the T/C (dose: 0.25 mg/kg/injection, schedule: Q01DX005 (sc), vehicle: water) was 103 % of control and the T/C (dose: 0.3 mg/kg/injection, schedule: Q04DX003 (ip), vehicle: water) was 153 % of control. For the same compound, the T/C (dose: 0.38 mg/kg/injection, schedule: Q01DX009 (ip), vehicle: water) was 151 % of control, the T/C (dose: 0.38 mg/kg/injection, schedule: Q04DX003 (ip), vehicle: water) was 103 % of control and the T/C (dose: 0.44 mg/kg/injection, schedule: Q04DX003 (ip), vehicle: saline) was 158 % of control. The T/C (dose: 0.5 mg/kg/injection, schedule: Q01DX001 (ip), vehicle: Klucel (hydroxypropylcellulose) (HPC)) was 112 % of control, the T/C (dose: 0.5 mg/kg/injection, schedule: Q01DX001 (ip), vehicle: saline with Tween-80) was 115 % of control and the T/C (dose: 0.5 mg/kg/injection, schedule: Q01DX005 (oral), vehicle: water) was 108 % of control. For the same compound, the T/C (dose: 0.5 mg/kg/injection, schedule: Q01DX005 (sc), vehicle: water) was 108 % of control, the T/C (dose: 0.58 mg/kg/injection, schedule: Q04DX003 (ip), vehicle: saline) was 159 % of control and the T/C (dose: 0.62 mg/kg/injection, schedule: Q01DX001 (ip), vehicle: water) was 159 % of control. For the same compound, the T/C (dose: 0.63 mg/kg/injection, schedule: Q01DX001 (ip), vehicle: water) was 154 % of control, the T/C (dose: 0.75 mg/kg/injection, schedule: Q04DX003 (ip), vehicle: water) was 118 % of control and the T/C (dose: 0.97 mg/kg/injection, schedule: Q04DX002 (ip), vehicle: saline) was 157 % of control and 160 % of control. The T/C (dose: 0.97 mg/kg/injection, schedule: Q04DX003 (ip), vehicle: water) was 163 % of control, the T/C (dose: 1.0 mg/kg/injection, schedule: Q01DX001 (ip), vehicle: Klucel (hydroxypropylcellulose) (HPC)) was 110 % of control and the T/C (dose: 1.0 mg/kg/injection, schedule: Q01DX001 (ip), vehicle: saline with Tween-80) was 119 % of control. For the same compound, the T/C (dose: 1.0 mg/kg/injection, schedule: Q01DX001 (iv), vehicle: saline) was 113 % of control, the T/C (dose: 1.0 mg/kg/injection, schedule: Q01DX005 (oral), vehicle: water) was 112 % of control and the T/C (dose: 1.0 mg/kg/injection, schedule: Q01DX005 (sc), vehicle: water) was 113 % of control. The T/C (dose: 1.0 mg/kg/injection, schedule: Q04DX003 (iv), vehicle: saline) was 100 % of control, the T/C (dose: 1.04 mg/kg/injection, schedule: Q04DX002 (ip), vehicle: saline) was 161 % of control and the T/C (dose: 1.08 mg/kg/injection, schedule: Q04DX003 (ip), vehicle: saline) was 159 % of control. For the same compound, the T/C (dose: 1.3 mg/kg/injection, schedule: Q01DX001 (ip), vehicle: water) was 156 % of control, the T/C (dose: 1.5 mg/kg/injection, schedule: Q04DX003 (ip), vehicle: water) was 117 % of control and 120 % of control and the T/C (dose: 1.8 mg/kg/injection, schedule: Q01DX001 (ip), vehicle: saline) was 154 % of control. The T/C (dose: 2.0 mg/kg/injection, schedule: Q01DX001 (ip), vehicle: DMSO) was 157 % of control, the T/C (dose: 2.0 mg/kg/injection, schedule: Q01DX001 (ip), vehicle: Klucel (hydroxypropylcellulose) (HPC)) was 122 % of control and the T/C (dose: 2.0 mg/kg/injection, schedule: Q01DX001 (iv), vehicle: saline) was 108 % of control. The T/C (dose: 2.0 mg/kg/injection, schedule: Q01DX005 (oral), vehicle: water) was 104 % of control, the T/C (dose: 2.0 mg/kg/injection, schedule: Q03HX008 (ip), vehicle: saline) was 162 % of control and the T/C (dose: 2.0 mg/kg/injection, schedule: Q04DX003 (iv), vehicle: saline) was 114 % of control. For the same compound, the T/C (dose: 2.1 mg/kg/injection, schedule: Q01DX004 (ip), vehicle: saline) was 161 % of control, the T/C (dose: 2.59 mg/kg/injection, schedule: Q01DX001 (ip), vehicle: saline) was 160 % of control and the T/C (dose: 3.0 mg/kg/injection, schedule: Q01DX001 (ip), vehicle: saline) was 154 % of control. For the same compound, the T/C (dose: 3.0 mg/kg/injection, schedule: Q04DX003 (ip), vehicle: water) was 120 % of control, the T/C (dose: 3.7 mg/kg/injection, schedule: Q01DX001 (ip), vehicle: saline) was 153 % of control and the T/C (dose: 4.0 mg/kg/injection, schedule: Q01DX001 (ip), vehicle: DMSO) was 162 % of control. For the same compound, the T/C (dose: 4.0 mg/kg/injection, schedule: Q01DX001 (ip), vehicle: saline with Tween-80) was 122 % of control, the T/C (dose: 4.0 mg/kg/injection, schedule: Q01DX001 (iv), vehicle: saline) was 123 % of control and the T/C (dose: 4.0 mg/kg/injection, schedule: Q01DX005 (oral), vehicle: water) was 105 % of control. For the same compound, the T/C (dose: 4.5 mg/kg/injection, schedule: Q04DX003 (iv), vehicle: saline) was 163 % of control, the T/C (dose: 4.75 mg/kg/injection, schedule: Q01DX001 (ip), vehicle: saline) was 163 % of control and the T/C (dose: 5.0 mg/kg/injection, schedule: Q01DX009 (ip), vehicle: saline) was 98 % of control and 105 % of control. The T/C (dose: 5.4 mg/kg/injection, schedule: Q04DX003 (ip), vehicle: saline) was 150 % of control, the T/C (dose: 5.4 mg/kg/injection, schedule: Q04DX003 (ip), vehicle: water) was 115 % of control and the T/C (dose: 6.0 mg/kg/injection, schedule: Q04DX003 (ip), vehicle: water) was 154 % of control. For the same compound, the T/C (dose: 6.0 mg/kg/injection, schedule: Q04DX003 (oral), vehicle: saline) was 98 % of control, the T/C (dose: 6.33 mg/kg/injection, schedule: Q01DX001 (iv), vehicle: saline) was 116 % of control and the T/C (dose: 8.0 mg/kg/injection, schedule: Q01DX001 (oral), vehicle: saline) was 98 % of control. For the same compound, the T/C (dose: 8.0 mg/kg/injection, schedule: Q01DX005 (oral), vehicle: water) was 107 % of control, the T/C (dose: 8.0 mg/kg/injection, schedule: Q04DX002 (ip), vehicle: saline) was 108 % of control and the T/C (dose: 10.0 mg/kg/injection, schedule: Q04DX003 (oral), vehicle: saline) was 105 % of control. The T/C (dose: 11.25 mg/kg/injection, schedule: Q01DX001 (iv), vehicle: saline) was 156 % of control, the T/C (dose: 12.0 mg/kg/injection, schedule: Q01DX001 (oral), vehicle: saline) was 106 % of control and the T/C (dose: 15.0 mg/kg/injection, schedule: Q04DX003 (iv), vehicle: saline) was 153 % of control. The T/C (dose: 16.0 mg/kg/injection, schedule: Q01DX001 (ip), vehicle: saline with Tween-80) was 151 % of control, the T/C (dose: 16.0 mg/kg/injection, schedule: Q01DX001 (oral), vehicle: saline) was 100 % of control and the T/C (dose: 16.0 mg/kg/injection, schedule: Q01DX005 (oral), vehicle: water) was 103 % of control. The T/C (dose: 16.0 mg/kg/injection, schedule: Q04DX003 (iv), vehicle: saline) was 103 % of control, the T/C (dose: 16.7 mg/kg/injection, schedule: Q04DX003 (oral), vehicle: saline) was 107 % of control and 112 % of control and the T/C (dose: 17.5 mg/kg/injection, schedule: Q01DX001 (ip), vehicle: saline) was 150 % of control. The T/C (dose: 20.0 mg/kg/injection, schedule: Q01DX001 (oral), vehicle: saline) was 103 % of control, the T/C (dose: 27.8 mg/kg/injection, schedule: Q04DX003 (oral), vehicle: saline) was 100 % of control and 106 % of control and the T/C (dose: 32.0 mg/kg/injection, schedule: Q01DX001 (ip), vehicle: Klucel (hydroxypropylcellulose) (HPC)) was 112 % of control. The T/C (dose: 32.0 mg/kg/injection, schedule: Q01DX001 (ip), vehicle: saline with Tween-80) was 161 % of control, the T/C (dose: 32.0 mg/kg/injection, schedule: Q01DX001 (oral), vehicle: saline) was 100 % of control and the T/C (dose: 33.3 mg/kg/injection, schedule: Q01DX001 (oral), vehicle: saline) was 99 % of control and 106 % of control. The T/C (dose: 46.3 mg/kg/injection, schedule: Q04DX003 (oral), vehicle: saline) was 103 % of control and 112 % of control, the T/C (dose: 64.0 mg/kg/injection, schedule: Q01DX001 (oral), vehicle: saline) was 107 % of control and the T/C (dose: 77.2 mg/kg/injection, schedule: Q04DX003 (oral), vehicle: saline) was 101 % of control. The T/C (dose: 92.6 mg/kg/injection, schedule: Q01DX001 (oral), vehicle: saline) was 106 % of control, the T/C (dose: 128.0 mg/kg/injection, schedule: Q01DX001 (oral), vehicle: saline) was 100 % of control and the T/C (dose: 128.6 mg/kg/injection, schedule: Q04DX003 (oral), vehicle: saline) was 99 % of control. For the same compound, the T/C (dose: 154.3 mg/kg/injection, schedule: Q01DX001 (oral), vehicle: saline) was 101 % of control.
